Earlier results in patent US20240238319A1, “CEREAL-BASED COMPOSITIONS WITH A MIX OF GALACTO-OLIGOSACCHARIDES/FRUCTO- OLIGOSACCHARIDES AND USES THEREOF FOR IMPROVING IRON ABSORPTION” (COMPAGNIE GERVAIS DANONE, priority 2021, published 2024).

Conditions: when providing at least 80% of the WHO recommended dietary allowance

**Q.** For `[Fe]` [iron], which “increased risk of diarrhea” value is on record?
**A.** Its value is 15%.
